Patent US20260116920A1, “HUMAN TRANSFERRIN RECEPTOR BINDING PEPTIDE” (PEPTIDREAM INC., priority 2021, published 2026)
Starred links: 1 amine or outer side, 2 acyl side, 3 side chain; linkers in the order of their positions; H or OH if unused. Positions of bridges follow the written chain, without caps; N, C: chain ends. Non-standard residues stand in square brackets, D forms with d. Residues, ends and D or L forms follow the SMILES beside them. *: point of attachment. E(PEG8Me) = (S)-30-amino-27-oxo-2,5,8,11,14,17,20,23-octaoxa-26-azahentriacontane-31-oic acid, COCCOCCOCCOCCOCCOCCOCCOCCNC(=O)CC[C@H](N[*:1])C(=O)[*:2]; Qpipzaa = (S)-2-amino-5-(4-(carboxymethyl)piperazin-1-yl)-5-oxopentanoic acid, O=C(CC[C@H](N[*:1])C(=O)[*:2])N1CCN(CC(=O)[*:3])CC1; F4aao = (S)-2-amino-3-(4-(carboxymethoxy)phenyl)propanoic acid, O=C([C@H](Cc1ccc(OCC(=O)[*:3])cc1)N[*:1])[*:2]; NH(1-deoxy-D-glucityl) = OC[C@@H](O)[C@@H](O)[C@H](O)[C@@H](O)CN*; Trp(1-CH2CO) = O=C([C@H](Cc1cn(CC(=O)[*:3])c2ccccc12)N[*:1])[*:2]; Trp(1-CH2COOH) = N[C@@H](Cc1cn(CC(=O)O)c2ccccc12)C(=O)O; Phe(3-COOH) = N[C@@H](Cc1cccc(C(=O)O)c1)C(=O)O; NMePhe(3-Cl) = CN[C@@H](Cc1cccc(Cl)c1)C(=O)O; 3Pal(6-NH2) = Nc1ccc(C[C@H](N)C(=O)O)cn1; PEG8 = NCCOCCOCCOCCOCCOCCOCCOCCOCCC(=O)O; Lys(N3) = [N-]=[N+]=NCCCC[C@H](N)C(=O)O; NMe3Pal = CN[C@@H](Cc1cccnc1)C(=O)O; NMeY = CN[C@@H](Cc1ccc(O)cc1)C(=O)O; 3Pal = N[C@@H](Cc1cccnc1)C(=O)O; 4Pal = N[C@@H](Cc1ccncc1)C(=O)O; PEG4 = NCCOCCOCCOCCOCCC(=O)O; Carboxymethyl = O=C(O)C*; NHCH2CH2OMe = COCCN*

Target: T1, human transferrin receptor (hTfR) (Homo sapiens, UniProt P02786)
T1 construct: made in house
Test: Evaluation of molecular interaction between transferrin receptor (hTfR) and peptide using surface plasmon resonance (SPR)
Type: binding
Settings: KD class for binding to hTfR by SPR, peptide with the linker shown in the same line, 'low signal indicates no activity'; for Kd: read-out: SPR
Protocol: Evaluation Test of Molecular Interaction Between Transferrin Receptor (hTfR) and Peptide Using Surface Plasmon Resonance (SPR)
The intermolecular interactions of various synthesized peptides with the transferrin receptor (hTfR) by surface plasmon resonance (SPR) of the peptides were tested by the methods described below. Specific test methods are shown below.
NTA sensor chip (Global Life Sciences Technologies Japan K.K.) was inserted into BiacoreT200 (Global Life Sciences Technologies Japan K.K.), then the priming operation was performed three times by using running buffer containing: 10 mM HEPES pH 8.0 (Nacalai Tesque, Inc.), 150 mM NaCl (Nacalai Tesque, Inc.), 0.05% Tween 20 (Nacalai Tesque, Inc.), 0.1% BSA (SIGMA-ALDRICH) and 1.0% DMSO (FUJIFILM Wako Pure Chemical Corporation), and equilibrated at a flow rate of 30 μL/min. 350 mM EDTA solution was reacted at a flow rate of 10 μL/min for 60 seconds, 0.5 mM […] solution (Kishida Chemical Co., Ltd.) was reacted at a flow rate of 10 μL/min for 60 seconds, and then the NTA sensor chip was washed with 3 mM EDTA solution (Nacalai Tesque, Inc.) at a flow rate of 10 μL/min for 60 seconds. After mixing 50 μL each of 60 mM EDC solution (Global Life Science Technologies Japan K.K.) and 650 mM NHS solution (Global Life Science Technologies Japan K.K.), the reaction was carried out at a flow rate of 10 μL/min for 420 seconds. 150 μL of 0.5 μM hTfR dimer solution was prepared by dilution with running buffer and reacted at a flow rate of 10 μL/min for 300 seconds to immobilize hTfR on the NTA sensor chip. For the human transferrin receptor (hTfR), recombinant hTfR described in Example 2 of WO2018/124121 was used. After immobilization, capping was performed by reacting with 1.0 M ethanolamine solution (Global Life Sciences Technologies Japan K.K.) at a flow rate of 10 μL/min for 420 seconds. Peptide lysate prepared in DMSO solution to 10 mM was diluted with running buffer to be a final concentration of 10 μM peptide lysate, then peptide solutions of 100 nM, 50 nM, 25 nM, 10 nM, and 5 nM were prepared. Using the above samples, the kinetics of the peptide against hTfR was obtained by SPR measurement.
The kinetic evaluation model was single-cycle kinetics, and curve fitting was performed using Biacore T200 Evaluation Software Version 3.0 (Global Life Science Technologies Japan K.K.). The binding of the peptide to hTfR was evaluated by performing curve fitting on the obtained sensorgram by least squares method and obtaining the KD value.

T1 sequence (P02786 89-760 limits assumed): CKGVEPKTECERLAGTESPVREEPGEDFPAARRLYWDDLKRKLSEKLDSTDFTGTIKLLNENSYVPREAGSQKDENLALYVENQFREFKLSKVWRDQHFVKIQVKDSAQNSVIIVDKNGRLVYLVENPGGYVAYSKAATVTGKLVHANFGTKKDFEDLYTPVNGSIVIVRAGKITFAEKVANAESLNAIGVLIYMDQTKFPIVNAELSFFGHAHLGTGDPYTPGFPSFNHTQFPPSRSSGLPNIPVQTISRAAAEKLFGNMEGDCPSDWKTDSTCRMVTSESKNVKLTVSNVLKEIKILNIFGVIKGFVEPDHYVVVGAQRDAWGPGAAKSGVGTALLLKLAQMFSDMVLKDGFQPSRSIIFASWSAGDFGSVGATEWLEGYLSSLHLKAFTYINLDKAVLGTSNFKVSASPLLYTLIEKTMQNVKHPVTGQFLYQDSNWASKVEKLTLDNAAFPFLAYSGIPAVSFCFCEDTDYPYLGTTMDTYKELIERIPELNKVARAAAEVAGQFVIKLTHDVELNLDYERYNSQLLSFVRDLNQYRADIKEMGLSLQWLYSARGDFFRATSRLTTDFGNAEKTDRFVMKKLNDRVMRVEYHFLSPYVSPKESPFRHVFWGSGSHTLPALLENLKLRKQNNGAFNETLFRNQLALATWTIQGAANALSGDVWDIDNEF

| SPR | Kd [nM] | Molecule |
| --- | --- | --- |
| Low signal |  | 894_0385 ({CH2CO}-AV[NMePhe(3-Cl)]V[Trp(1-CH2CO)]NY[F4aao]II[Qpipzaa][Qpipzaa]F[NMeY]C-NH2; thioether N-15; also: linker PEG4c, place not given here) |
| Low signal |  | 894_3181 (AVFVWNYFIIEEFYC; cyclised or stapled) |
| Low signal |  | 894_3183 ({CH2CO}-AV[NMePhe(3-Cl)]V[Trp(1-CH2CO)]NY[F4aao]II[E(PEG8Me)][E(PEG8Me)]F[NMeY]CG[PEG8][Lys(N3)]-NH2; thioether N-15; SMILES CC[C@H](C)[C@@H]1NC(=O)[C@H](Cc2ccc(OCC(=O)O)cc2)NC(=O)[C@H](Cc2ccc(O)cc2)NC(=O)[C@H](CC(N)=O)NC(=O)[C@H](Cc2cn(CC(=O)O)c3ccccc23)NC(=O)[C@H](C(C)C)NC(=O)[C@H](Cc2cccc(Cl)c2)N(C)C(=O)[C@H](C(C)C)NC(=O)[C@H](C)NC(=O)CSC[C@@H](C(=O)NCC(=O)NCCOCCOCCOCCOCCOCCOCCOCCOCCC(=O)N[C@@H](CCCCN=[N+]=[N-])C(N)=O)NC(=O)[C@H](Cc2ccc(O)cc2)N(C)C(=O)[C@H](Cc2ccccc2)NC(=O)[C@H](CCC(=O)NCCOCCOCCOCCOCCOCCOCCOCCOC)NC(=O)[C@H](CCC(=O)NCCOCCOCCOCCOCCOCCOCCOCCOC)NC(=O)[C@H]([C@@H](C)CC)NC1=O) |
| Low signal |  | 894_3184 ({CH2CO}-AV[NMePhe(3-Cl)]V[Trp(1-CH2CO)]NY[F4aao]II[E(PEG8Me)][E(PEG8Me)][Phe(3-COOH)][NMeY]CG[Lys(N3)]-NH2; thioether N-15; SMILES CC[C@H](C)[C@@H]1NC(=O)[C@H](Cc2ccc(OCC(=O)O)cc2)NC(=O)[C@H](Cc2ccc(O)cc2)NC(=O)[C@H](CC(N)=O)NC(=O)[C@H](Cc2cn(CC(=O)O)c3ccccc23)NC(=O)[C@H](C(C)C)NC(=O)[C@H](Cc2cccc(Cl)c2)N(C)C(=O)[C@H](C(C)C)NC(=O)[C@H](C)NC(=O)CSC[C@@H](C(=O)NCC(=O)N[C@@H](CCCCN=[N+]=[N-])C(N)=O)NC(=O)[C@H](Cc2ccc(O)cc2)N(C)C(=O)[C@H](Cc2cccc(C(=O)O)c2)NC(=O)[C@H](CCC(=O)NCCOCCOCCOCCOCCOCCOCCOCCOC)NC(=O)[C@H](CCC(=O)NCCOCCOCCOCCOCCOCCOCCOCCOC)NC(=O)[C@H]([C@@H](C)CC)NC1=O) |
|  | 1 to 100 | CC[C@H](C)[C@@H]1NC(=O)[C@H](Cc2ccc(OC)cc2)NC(=O)[C@H](Cc2ccc(O)cc2)NC(=O)[C@H](CC(N)=O)NC(=O)[C@H](Cc2c[nH]c3ccccc23)NC(=O)[C@H](C(C)C)NC(=O)[C@H](Cc2cccc(Cl)c2)N(C)C(=O)[C@H](C(C)C)NC(=O)[C@H](C)NC(=O)CSC[C@@H](C(=O)NCCOCCOCCOCCOCCC(N)=O)NC(=O)[C@H](Cc2ccc(O)cc2)N(C)C(=O)[C@H](Cc2ccc(O)cc2)NC(=O)[C@H](CCCNC(=N)N)NC(=O)[C@H](CCCCN)NC(=O)[C@H]([C@@H](C)CC)NC1=O [894_0292] |
|  | 1 to 100 | CC[C@H](C)[C@@H]1NC(=O)[C@H](Cc2ccc(OC)cc2)NC(=O)[C@H](Cc2ccc(O)cc2)NC(=O)[C@H](CC(N)=O)NC(=O)[C@H](Cc2c[nH]c3ccccc23)N(C)C(=O)[C@H](C(C)C)NC(=O)[C@H](Cc2cccc(Cl)c2)N(C)C(=O)[C@H](C(C)C)NC(=O)[C@H](C)NC(=O)CSC[C@@H](C(=O)NCCOCCOCCOCCOCCC(N)=O)NC(=O)[C@H](Cc2ccc(O)cc2)N(C)C(=O)[C@H](Cc2ccc(O)cc2)NC(=O)[C@H](CCCNC(=N)N)NC(=O)[C@H](CCCNC(=N)N)NC(=O)[C@H]([C@@H](C)CC)NC1=O [894_0293] |
|  | 1 to 100 | CC[C@H](C)[C@@H]1NC(=O)[C@H](Cc2cccnc2)NC(=O)[C@H](Cc2ccc(N)nc2)NC(=O)[C@H](CC(N)=O)NC(=O)[C@H](Cc2c[nH]c3ccccc23)NC(=O)[C@H](C(C)C)NC(=O)[C@H](Cc2cccnc2)N(C)C(=O)[C@H](C(C)C)NC(=O)[C@H](C)NC(=O)CSC[C@@H](C(=O)NCCOCCOCCOCCOCCC(N)=O)NC(=O)[C@H](Cc2ccc(O)cc2)N(C)C(=O)[C@H](Cc2ccncc2)NC(=O)[C@H](CCCNC(=N)N)NC(=O)[C@H](CCCNC(=N)N)NC(=O)[C@H]([C@@H](C)CC)NC1=O [894_0321] ({CH2CO}-AV[NMe3Pal]VWN[3Pal(6-NH2)][3Pal]IIRR[4Pal][NMeY]C[PEG4]-NH2; thioether N-15) |
|  | 1 to 100 | CC[C@H](C)[C@@H]1NC(=O)[C@H](Cc2cccnc2)NC(=O)[C@H](Cc2ccc(O)cc2)NC(=O)[C@H](CC(N)=O)NC(=O)[C@H](Cc2c[nH]c3ccccc23)NC(=O)[C@H](C(C)C)NC(=O)[C@H](Cc2cccc(Cl)c2)N(C)C(=O)[C@H](C(C)C)NC(=O)[C@H](C)NC(=O)CSC[C@@H](C(=O)NCCOCCOCCOCCOCCC(N)=O)NC(=O)[C@H](Cc2ccc(O)cc2)N(C)C(=O)[C@H](Cc2ccncc2)NC(=O)[C@H](CCC(=O)NCCOC)NC(=O)[C@H](CCC(=O)NCCOC)NC(=O)[C@H]([C@@H](C)CC)NC1=O [894_0326] ({CH2CO}-AV[NMePhe(3-Cl)]VWNY[3Pal]IIE(NHCH2CH2OMe)E(NHCH2CH2OMe)[4Pal][NMeY]C[PEG4]-NH2; thioether N-15) |
|  | 1 to 100 | CC[C@H](C)[C@@H]1NC(=O)[C@H](Cc2cccnc2)NC(=O)[C@H](Cc2ccc(O)cc2)NC(=O)[C@H](CC(N)=O)NC(=O)[C@H](Cc2c[nH]c3ccccc23)NC(=O)[C@H](C(C)C)NC(=O)[C@H](Cc2cccc(Cl)c2)N(C)C(=O)[C@H](C(C)C)NC(=O)[C@H](C)NC(=O)CSC[C@@H](C(=O)NCCOCCOCCOCCOCCC(N)=O)NC(=O)[C@H](Cc2ccc(O)cc2)N(C)C(=O)[C@H](Cc2ccncc2)NC(=O)[C@H](CCC(=O)NC[C@H](O)[C@@H](O)[C@H](O)[C@H](O)CO)NC(=O)[C@H](CCC(=O)NC[C@H](O)[C@@H](O)[C@H](O)[C@H](O)CO)NC(=O)[C@H]([C@@H](C)CC)NC1=O [894_0328] ({CH2CO}-AV[NMePhe(3-Cl)]VWNY[3Pal]IIE(NH(1-deoxy-D-glucityl))E(NH(1-deoxy-D-glucityl))[4Pal][NMeY]C[PEG4]-NH2; thioether N-15) |
|  | 1 to 100 | CC[C@H](C)[C@@H]1NC(=O)[C@H](Cc2ccc(OCC(=O)O)cc2)NC(=O)[C@H](Cc2ccc(O)cc2)NC(=O)[C@H](CC(N)=O)NC(=O)[C@H](Cc2cn(CC(=O)O)c3ccccc23)NC(=O)[C@H](C(C)C)NC(=O)[C@H](Cc2cccc(Cl)c2)N(C)C(=O)[C@H](C(C)C)NC(=O)[C@H](C)NC(=O)CSC[C@@H](C(=O)NCCOCCOCCOCCOCCC(N)=O)NC(=O)[C@H](Cc2ccc(O)cc2)N(C)C(=O)[C@H](Cc2cccc(C(=O)O)c2)NC(=O)[C@H](CCC(=O)NCCOC)NC(=O)[C@H](CCC(=O)NCCOC)NC(=O)[C@H]([C@@H](C)CC)NC1=O [894_0329] ({CH2CO}-AV[NMePhe(3-Cl)]V[Trp(1-CH2COOH)]NYY(Carboxymethyl)IIE(NHCH2CH2OMe)E(NHCH2CH2OMe)[Phe(3-COOH)][NMeY]C[PEG4]-NH2; thioether N-15) |
|  | 1 to 100 | CC[C@H](C)[C@@H]1NC(=O)[C@H](Cc2ccc(OC)cc2)NC(=O)[C@H](Cc2ccc(O)cc2)NC(=O)[C@H](CC(N)=O)NC(=O)[C@H](Cc2c[nH]c3ccccc23)NC(=O)[C@H](C(C)C)NC(=O)[C@H](Cc2cccc(Cl)c2)N(C)C(=O)[C@H](C(C)C)NC(=O)[C@H](C)NC(=O)CSC[C@@H](C(=O)NCCOCCOCCOCCOCCC(N)=O)NC(=O)[C@H](Cc2ccc(O)cc2)N(C)C(=O)[C@H](Cc2ccccc2)NC(=O)[C@H](CCC(=O)NCCOC)NC(=O)[C@H](CCC(=O)NCCOC)NC(=O)[C@H]([C@@H](C)CC)NC1=O [894_0330] ({CH2CO}-AV[NMePhe(3-Cl)]VWNYY(Me)IIE(NHCH2CH2OMe)E(NHCH2CH2OMe)F[NMeY]C[PEG4]-NH2; thioether N-15) |
|  | 1 to 100 | CC[C@H](C)[C@@H]1NC(=O)[C@H](Cc2ccc(OC)cc2)NC(=O)[C@H](Cc2ccc(O)cc2)NC(=O)[C@H](CC(N)=O)NC(=O)[C@H](Cc2c[nH]c3ccccc23)NC(=O)[C@H](C(C)C)NC(=O)[C@H](Cc2cccc(Cl)c2)N(C)C(=O)[C@H](C(C)C)NC(=O)[C@H](C)NC(=O)CSC[C@@H](C(=O)NCCOCCOCCOCCOCCC(N)=O)NC(=O)[C@H](Cc2ccc(O)cc2)N(C)C(=O)[C@H](Cc2ccccc2)NC(=O)[C@H](CCC(N)=O)NC(=O)[C@H](CCC(N)=O)NC(=O)[C@H]([C@@H](C)CC)NC1=O [894_0331] ({CH2CO}-AV[NMePhe(3-Cl)]VWNYY(Me)IIQQF[NMeY]C[PEG4]-NH2; thioether N-15) |
